Each structure is given as a SMILES string. Activity calls are given as the source filed them. No rule for the calls is given here.

Experimental findings from PubChem BioAssay AID1259407 (Chemical Carcinogenesis Research Information System (CCRIS), 2018) are described below.

The data set has as its system CCRIS mutagenicity, Ames/micronucleus/aberration tests. Put plainly: CCRIS mutagenicity studies.
The mark [1] stands for this setting: Test System: AMES SALMONELLA TYPHIMURIUM, Strain/Indicator: TA98, Metabolic Activation: NONE, Method: STANDARD PLATE.
Where [2] appears, read: Test System: AMES SALMONELLA TYPHIMURIUM, Strain/Indicator: TA100, Metabolic Activation: NONE, Method: PREINCUBATION
[3] abbreviates: Test System: AMES SALMONELLA TYPHIMURIUM, Strain/Indicator: TA100, Metabolic Activation: NONE, Method: STANDARD PLATE.
Setting [4] is: Test System: AMES SALMONELLA TYPHIMURIUM, Strain/Indicator: TA102, Metabolic Activation: NONE, Method: STANDARD PLATE.
The mark [5] stands for this setting: Test System: AMES SALMONELLA TYPHIMURIUM, Strain/Indicator: TA1537, Metabolic Activation: NONE, Method: STANDARD PLATE.

For `CC1=CC(=O)c2c(O)cccc2C1=O`, the mutagenic call (Test System: AMES SALMONELLA TYPHIMURIUM, Strain/Indicator: TA97, Metabolic Activation: NONE, Method: PREINCUBATION) is “active; positive”; the mutagenic call (Test System: AMES SALMONELLA TYPHIMURIUM, Strain/Indicator: TA97, Metabolic Activation: RAT, LIVER, S-9, PHENOBARBITAL AND 5,6-BENZOFLAVONE, Method: PREINCUBATION) was “active; positive”; the mutagenic call (Test System: AMES SALMONELLA TYPHIMURIUM, Strain/Indicator: TA98, Metabolic Activation: HAMSTER LIVER S-9, AROCLOR 1254, Method: STANDARD PLATE) was “inactive; negative”; the mutagenic call (Test System: AMES SALMONELLA TYPHIMURIUM, Strain/Indicator: TA98, Metabolic Activation: NONE, Method: PREINCUBATION) was “inactive; negative”; the mutagenic call under setting [1] was “inactive; negative”; the mutagenic call (Test System: AMES SALMONELLA TYPHIMURIUM, Strain/Indicator: TA98, Metabolic Activation: RAT LIVER S-9, AROCLOR 1254, Method: STANDARD PLATE) was “inactive; negative”. Further, the mutagenic call reads like this: (Test System: AMES SALMONELLA TYPHIMURIUM, Strain/Indicator: TA98, Metabolic Activation: RAT, LIVER, S-9, PHENOBARBITAL AND 5,6-BENZOFLAVONE, Method: PREINCUBATION) “inactive; negative”; (Test System: AMES SALMONELLA TYPHIMURIUM, Strain/Indicator: TA100, Metabolic Activation: HAMSTER LIVER S-9, AROCLOR 1254, Method: STANDARD PLATE) “inactive; negative”; under setting [2], “inactive; negative”; under setting [3], “inactive; negative”; (Test System: AMES SALMONELLA TYPHIMURIUM, Strain/Indicator: TA100, Metabolic Activation: RAT LIVER S-9, AROCLOR 1254, Method: STANDARD PLATE) “inactive; negative”; (Test System: AMES SALMONELLA TYPHIMURIUM, Strain/Indicator: TA100, Metabolic Activation: RAT, LIVER, S-9, PHENOBARBITAL AND 5,6-BENZOFLAVONE, Method: PREINCUBATION) “active; positive”. Also, the mutagenic call is, setting by setting: (Test System: AMES SALMONELLA TYPHIMURIUM, Strain/Indicator: TA102, Metabolic Activation: NONE, Method: PREINCUBATION) “inactive; negative”; under setting [4], “inactive; negative”; (Test System: AMES SALMONELLA TYPHIMURIUM, Strain/Indicator: TA102, Metabolic Activation: RAT, LIVER, S-9, PHENOBARBITAL AND 5,6-BENZOFLAVONE, Method: PREINCUBATION) “inactive; negative”; (Test System: AMES SALMONELLA TYPHIMURIUM, Strain/Indicator: TA104, Metabolic Activation: NONE, Method: PREINCUBATION) “active; positive”; (Test System: AMES SALMONELLA TYPHIMURIUM, Strain/Indicator: TA104, Metabolic Activation: RAT, LIVER, S-9, PHENOBARBITAL AND 5,6-BENZOFLAVONE, Method: PREINCUBATION) “active; positive”; (Test System: AMES SALMONELLA TYPHIMURIUM, Strain/Indicator: TA1535, Metabolic Activation: HAMSTER LIVER S-9, AROCLOR 1254, Method: STANDARD PLATE) “inactive; negative”. In addition, the mutagenic call runs as follows: (Test System: AMES SALMONELLA TYPHIMURIUM, Strain/Indicator: TA1535, Metabolic Activation: NONE, Method: PREINCUBATION) “inactive; negative”; (Test System: AMES SALMONELLA TYPHIMURIUM, Strain/Indicator: TA1535, Metabolic Activation: NONE, Method: STANDARD PLATE) “inactive; negative”; (Test System: AMES SALMONELLA TYPHIMURIUM, Strain/Indicator: TA1535, Metabolic Activation: RAT LIVER S-9, AROCLOR 1254, Method: STANDARD PLATE) “inactive; negative”; (Test System: AMES SALMONELLA TYPHIMURIUM, Strain/Indicator: TA1535, Metabolic Activation: RAT, LIVER, S-9, PHENOBARBITAL AND 5,6-BENZOFLAVONE, Method: PREINCUBATION) “inactive; negative”; (Test System: AMES SALMONELLA TYPHIMURIUM, Strain/Indicator: TA1537, Metabolic Activation: HAMSTER LIVER S-9, AROCLOR 1254, Method: STANDARD PLATE) “inactive; negative”; (Test System: AMES SALMONELLA TYPHIMURIUM, Strain/Indicator: TA1537, Metabolic Activation: NONE, Method: PREINCUBATION) “inactive; negative”. In addition, the mutagenic call reads like this: under setting [5], “inactive; negative”; (Test System: AMES SALMONELLA TYPHIMURIUM, Strain/Indicator: TA1537, Metabolic Activation: RAT LIVER S-9, AROCLOR 1254, Method: STANDARD PLATE) “inactive; negative”; (Test System: AMES SALMONELLA TYPHIMURIUM, Strain/Indicator: TA1537, Metabolic Activation: RAT, LIVER, S-9, PHENOBARBITAL AND 5,6-BENZOFLAVONE, Method: PREINCUBATION) “active; positive”; (Test System: AMES SALMONELLA TYPHIMURIUM, Strain/Indicator: TA1538, Metabolic Activation: NONE, Method: PREINCUBATION) “inactive; negative”; (Test System: AMES SALMONELLA TYPHIMURIUM, Strain/Indicator: TA1538, Metabolic Activation: RAT, LIVER, S-9, PHENOBARBITAL AND 5,6-BENZOFLAVONE, Method: PREINCUBATION) “inactive; negative”; (Test System: AMES SALMONELLA TYPHIMURIUM, Strain/Indicator: TA2637, Metabolic Activation: NONE, Method: PREINCUBATION) “active; positive”. For the same molecule, the mutagenic call is “active; positive” (Test System: AMES SALMONELLA TYPHIMURIUM, Strain/Indicator: TA2637, Metabolic Activation: RAT, LIVER, S-9, PHENOBARBITAL AND 5,6-BENZOFLAVONE, Method: PREINCUBATION); “inactive; negative” (Test System: AMES SALMONELLA TYPHIMURIUM, Strain/Indicator: TA2638, Metabolic Activation: NONE, Method: STANDARD PLATE); “inactive; negative” (Test System: Ames Salmonella typhimurium, Strain/Indicator: TA102, Metabolic Activation: None, Method: Preincubation); “inactive; negative” (Test System: Ames Salmonella typhimurium, Strain/Indicator: TA102, Metabolic Activation: Rat, Liver, S-9, Aroclor 1254 in 0.154 M KCl, Method: Preincubation); “inactive; negative” (Test System: E. COLI, Strain/Indicator: WP2 (PKM101), Metabolic Activation: NONE, Method: STANDARD PLATE); “inactive; negative” (Test System: E. COLI, Strain/Indicator: WP2 UVRA (PKM101), Metabolic Activation: NONE, Method: STANDARD PLATE). Moreover, the mutagenic call was “inactive; positive. reevaluation of results: negative” (Test System: MOUSE LYMPHOMA, Strain/Indicator: L5178Y (TK+/TK-), Metabolic Activation: NONE, Method: SUSPENSION/PLATE) and “active; positive. reevaluation of results: equivocal” (Test System: MOUSE LYMPHOMA, Strain/Indicator: L5178Y (TK+/TK-), Metabolic Activation: RAT, LIVER, S-9, AROCLOR 1254, Method: SUSPENSION/PLATE).

On to `Cc1ccc(NO)cc1`, for which the mutagenic call runs as follows: (Test System: AMES SALMONELLA TYPHIMURIUM, Strain/Indicator: TA98, Metabolic Activation: RAT, LIVER, S-9, AROCLOR 1254, Method: PREINCUBATION) “inactive; negative”; under setting [2], “active; positive”; (Test System: AMES SALMONELLA TYPHIMURIUM, Strain/Indicator: TA100, Metabolic Activation: RAT, LIVER, S-9, PCB, Method: PREINCUBATION) “active; positive”; (Test System: E. COLI, Strain/Indicator: WP2 UVRA, Metabolic Activation: NONE, Method: FLUCTUATION TEST) “active; positive”.

As to `Cc1ccc(N=Nc2c(O)ccc3ccccc23)c(S(=O)(=O)O)c1`, the mutagenic call reads like this: under setting [1], “inactive; negative”; (Test System: AMES SALMONELLA TYPHIMURIUM, Strain/Indicator: TA98, Metabolic Activation: RAT, LIVER, S-9, Method: STANDARD PLATE) “inactive; negative”; under setting [3], “inactive; negative”; (Test System: AMES SALMONELLA TYPHIMURIUM, Strain/Indicator: TA100, Metabolic Activation: RAT, LIVER, S-9, Method: STANDARD PLATE) “inactive; negative”.

Take `OC[C@H]1O[C@@H](n2cnc3c(=S)nc[nH]c32)[C@H](O)[C@@H]1O`: the mutagenic call was “inactive; negative” under setting [1]; “active; positive” under setting [3]; “inactive; negative” under setting [4]; “inactive; negative” under setting [5]; “inactive; negative” (Test System: E. COLI, Strain/Indicator: WP2 (HCR), Metabolic Activation: NONE, Method: STANDARD PLATE).
